Tested on: VEGF induced increases in intracellular calcium levels in HUVEC (human umbilical vein endothelial cells)
Test: VEGF Stimulated Ca++ Signal in vitro (FLIPR)
Assay type: cell-based
Conditions: 10 μM, VEGF 5 ng/mL; for inhibition at 10 µM: Homo sapiens
Protocol: VEGF Stimulated Ca^++ Signal in vitro
Automated FLIPR (Fluorometric Imaging Plate Reader) technology was used to screen for inhibitors of VEGF induced increases in intracellular calcium levels in fluorescent dye loaded endothelial cells. HUVEC (human umbilical vein endothelial cells) (Clonetics) were seeded in 96-well fibronectin coated black-walled plates overnight at 37° C./5%CO2. Cells were loaded with calcium indicator Fluo-4 for 45 minutes at 37° C. Cells were washed 4 times (Original Cell Wash, Labsystems) to remove extracellular dye. Test compounds were reconstituted in 100% DMSO and added to the cells to give a final DMSO concentration of 0.1%. For screening, cells were pre-incubated with test agents for 30 minutes, at a single concentration (10 μM) or at concentrations ranging from 0.01 to 10.0 μM followed by VEGF stimulation (5 ng/mL). Changes in fluorescence at 516 nm were measured simultaneously in all 96 wells using a cooled CCD camera. Data were generated by determining max-min fluorescence levels for unstimulated, stimulated, and drug treated samples. IC50 values for test compounds were calculated from % inhibition of VEGF stimulated responses in the absence of inhibitor.

Row | SMILES | inhibition at 10 µM | VEGF Stimulated Ca^++ signal assay % inhibition @ 10 μM
1 | O=C1Nc2ccccc2C1=CNc1ccc(Cl)cc1F [Example 24, 3-[(4-Chloro-2-fluoro-phenylamino)-methylene]-1,3-dihydro-indol-2-one] | -13.5% | –
2 | O=C1Nc2ccccc2C1=CNc1ccc(C(F)(F)F)cc1 [Example 25, 3-[(4-Trifluoromethyl-phenylamino)-methylene]-1,3-dihydro-indol-2-one] | -1.5% | –
3 | CCOC(=O)Oc1cc(NC=C2C(=O)Nc3ccccc32)c(F)cc1C [Example 26, Carbonic acid ethyl ester 4-fluoro-2-methyl-5-[(2-oxo-1,2-dihydro-indol-3-ylidenemethyl)-amino]-phenyl ester] | 37.5% | –
4 | Cc1cc(F)c(NC=C2C(=O)Nc3ccccc32)cc1OC(=O)OCC(C)(C)C [Example 27, Carbonic acid 2,2-dimethyl-propyl ester 4-fluoro-2-methyl-5-[(2-oxo-1,2-dihydro-indol-3-ylidenemethyl)-amino]-phenyl ester] | -9% | –
5 | O=C1Nc2ccccc2C1=CNc1cc(O)c(Cl)cc1F [Example 28, 3-[(4-Chloro-2-fluoro-5-hydroxy-phenylamino)-methylene]-1,3-dihydro-indol-2-one] | 32.5% | –
6 | N#CCc1ccc(NC=C2C(=O)Nc3ccccc32)cc1 [Example 30, 3-[(4-Cyanomethylphenylamino)-methylene]-1,3-dihydro-indol-2-one] | 39.5% | –
7 | O=C1Nc2ccccc2C1=CNc1ccc(Cl)cc1 [Example 36, 3-[(4-Chlorophenylamino)-methylene]-1,3-dihydro-indol-2-one] | 30% | –
8 | O=C1Nc2ccccc2C1=CNc1ccc(Cl)c(C(=O)O)c1 [Example 37, 2-Chloro-5-[(2-oxo-1,2-dihydro-indol-3-ylidenemethyl)-amino]-benzoic acid] | -4% | –
9 | CC(=O)NS(=O)(=O)c1ccc(NC=C2C(=O)Nc3ccccc32)cc1 [Example 39, 2-Oxo-1,2-dihydro-indol-3-ylidenemethyl-sulfaacetamide] | – | −14.50%
10 | O=C1Nc2ccccc2C1=CNc1ccc(Oc2ccccc2)cc1 [Example 41, 3-[(4-Phenoxyamino)-methylene]-1,3-dihydro-indol-2-one] | – | 16.00%
11 | COc1ccc(NC=C2C(=O)Nc3ccccc32)cc1OC [Example 42, 3-[(3,4-Dimethoxyamino)-methylene]-1,3-dihydro-indol-2-one] | – | 59.50%
12 | O=C1Nc2ccccc2C1=CNc1ccc(OC(F)(F)F)cc1 [Example 51, 3-[(4-Trifluoromethoxy-phenylamino)-methylene]-1,3-dihydro-indol-2-one] | 45.5% | –
13 | Cc1ccc(NC=C2C(=O)Nc3ccccc32)c(F)c1 [Example 53, 3-[(2-Fluoro-4-methyl-phenylamino)-methylene]-1,3-dihydro-indol-2-one] | 2.5% | –
14 | Cc1cc(NC=C2C(=O)Nc3ccccc32)ccc1Cl [Example 54, 3-[(4-Chloro-3-methyl-phenylamino)-methylene]-1,3-dihydro-indol-2-one] | 40.5% | –
15 | COc1ccc(NC=C2C(=O)Nc3ccccc32)cc1C(F)(F)F [Example 55, 3-[(4-Methoxy-3-trifluoromethyl-phenylamino)-methylene]-1,3-dihydro-indol-2-one] | 14.5% | –
16 | COc1cc(NC=C2C(=O)Nc3cccc(C)c32)cc(OC)c1 [Example 61, 3-[(3,5-Dimethoxy-phenylamino)-methylene]-4-methyl-1,3-dihydro-indol-2-one] | -4.5% | –
17 | Cc1ccc(NC=C2C(=O)Nc3cccc(C)c32)cc1 [Example 62, 4-Methyl-3-(p-tolylamino-methylene)-1,3-dihydro-indol-2-one] | 33% | –
18 | Cc1cc(C)cc(NC=C2C(=O)Nc3cccc(C)c32)c1 [Example 63, 3-[(3,5-Dimethyl-phenylamino)-methylene]-4-methyl-1,3-dihydro-indol-2-one] | -14.5% | –
